The data set relates to adult patients under general anesthetic in noncardiac surgery. It counts as in vivo, human. How it is done:
The study covered 1,534 patients having received perioperative hemodynamic optimization with use of noradrenaline (in the form of noradrenaline tartrate) to maintain blood pressure under general anesthetic in noncardiac surgery in adults.
The hemodynamic surveillance is performed non-invasively as blood pressure is taken automatically every 2 minutes when inducing anesthesia, then every 5 minutes during the hemodynamic stability period.
Administration of noradrenaline in continuous perfusion with the solution titered at 10 μg/mL.
This solution is injected: • firstly as a continuous perfusion, in an automatic syringe pump, whose speed will be modulated as a function of the weight, age, and initial “blood pressure state” of the patient (notion of treated or untreated hypertension), of the presence or absence of epidural anesthesia combined with general anesthesia. • secondly as an isolated perfusion to prevent causing a bolus of NA during the injection of another drug in the perfusion tubing. This isolated perfusion is branched either on an extra venous catheter independent of the venous access used for the anesthetic, or on a multi-lumen catheter of a central venous path, or on a three-way tap located between the peripheral venous catheter and the end of the perfusion tubing.
The recommended dosages are 0.02 to 0.08 μg/kg/min of noradrenaline.
The suitable dosage is that which delivers blood pressure similar, within a limit of 20% of the preoperative blood pressure of the patient, and systolic blood pressure >100 mmHg
For general anesthetic, noradrenaline administration by continuous perfusion with the solution titered at 10 μg/mL must be started 3 to 4 minutes before inducing anesthesia to prevent hypotension caused by the anesthetic.
The patient is weaned off noradrenaline during the emergence phase by progressively reducing noradrenaline administration dosages as a function of how well the patient is returning to the preoperative blood pressure.
The study covered 1,534 patients 15 to 102 years old (average age 56 years old), with average weight 72 kg (extremes from 33 to 163 kg), mean preoperative blood pressure 138 mmHg (from 95 to 200 mmHg).
The induction procedure for general anesthetic is the same for all the patients: the patients receive 0.2 μg/kg of sufentanil, after 3 minutes 1.5 to 3 mg/kg propofol, then 0.15 mg/kg of cisatracurium.
The patients are intubated 3 minutes after the curare injection and ventilated with 8 mL/kg of theoretical weight.
Anesthesia is maintained using sevoflurane. The perioperative analgesia is handled by continuous injection of remifentanil and/or by iterative injection of sufentanil.
A continuous perfusion of noradrenaline in solution at 10 μg/mL of noradrenaline is administered 4 minutes before inducing anesthesia.
The dosages used are generally comprised between 0.02 and 0.08 μg/kg/min.
The patient is weaned off the continuous perfusion of the noradrenaline solution at 10 μg/mL in the emergence phase by progressively reducing the noradrenaline administration dosages as a function of how well the patient is returning to the preoperative blood pressure.
Clinically: non-invasive blood pressure surveillance is performed every 2 minutes when inducing anesthesia, then every 5 minutes during the hemodynamic stability period.
The quality of the perioperative hemostasis was always noted.
The following elements are systematically monitored and noted in the first 24 hours postoperative: agitation when waking, postoperative nausea and/or vomiting (PONY).
Biologically: troponin was assayed at D1 in 26.0% of patients judged to be at risk: 99.87% were at zero, one patient has a troponine assay at 0.04 and one patient at 0.05 μg/mL (significance threshold is 0.4 μg/mL). These patients were controlled again and their level had normalized at D2.
Urea and creatinine assay on D0 and D1 performed on 26.0% of the patients judged to be at higher risk. […]

[1] abbreviates: general anesthetic combined with epidural anesthetic.

As to `NC[C@H](O)c1ccc(O)c(O)c1` [noradrenaline, 4-[(1R)-2-amino-1-hydroxyethyl]benzene-1,2-diol], for the setting “continuous injection”, the “effect on blood pressure” value is listed as “immediate, brief, but without tachyphylaxis, long-lasting in continuous injection, rapidly reversible”. Moreover, the “perioperative blood pressure control” value (five elderly patients with aortal stenosis and hip fracture, general anesthesia) is “controlled perioperative blood pressure during general anesthesia without cardiac incidents”. In addition, under setting [1], the “duration of blood pressure control” value is reported as “up to 400 min”; the “tachyphylaxis and vascular filling during prolonged blood pressure control” value was “without tachyphylaxis and without excess vascular filling”. For the same molecule, where the note is “hemodialyzed patients with renal failure, 0.05 to 0.08 μg/kg/min”, the blood pressure control result is reported as “blood pressure could be controlled”. Further, under “human, in vivo”, the “cases of superficial venous thromboses detected” value is reported as “five”, the “hypertension needing nicardipine 1 mg bolus as last resort” value turned out to be 26 cases, the other undesirable effects result is reported as “No other undesirable effect” and the “patients with troponin at zero” value came out at 99.87%. Moreover, where the note is “human, in vivo”, the perioperative urine flows result is on record as “net increase”; the postoperative vomiting result was “none of the patients”; the “renal function (urea and creatinine assay)” value is recorded as “no changes to renal function”; the “urea and creatinine postoperative value” is recorded as “reduction of their postoperative value at D1”. The molecule further registered a postoperative nausea (human, in vivo, 24 h) of 1.2%. Further, where the note is “human, in vivo, 4 day”, the “distal peripheral venous thrombosis complications” value was found to be 0.32%. Besides, for the setting “independent of duration of intervention and patient age”, the “lucidity at emergence and absence of agitation” value is on record as “noted in all patients”. Moreover, the “health risk and surgical outcomes” value (patients over 80 years old (8.5%)) was “the health risk was controlled and surgical outcomes were simple”. Where the note is “young patients without history, 0.02 μg/kg/h”, the quality of emergence entry was “better lucidity and quasi-disappearance of postoperative nausea and vomiting”.

(Values after US20130123298A1, “PHARMACEUTICAL COMPOSITION FOR THE PREVENTION OF PERIOPERATIVE ARTERIAL HYPOTENSION IN HUMANS” (LABORATOIRE AGUETTANT, priority 2010, published 2013).)
